# Measurements from US4072689A, “Monoamino 2,4,5-trisubstituted oxazoles” (Gruppo Lepetit S.p.A., priority 1975, dated 1978).
# Legend:
# [1] = acute toxicity, LD50 p.o. mice; conditions: mouse, in vivo, po
# [2] = tested on: carrageenin induced edema; test: carrageenin-induced edema test, oral administration; format: in vivo, rats; conditions: mice
# Description: The compounds of the invention have antiinflammatory activity. […] The compounds are orally administered at dosages varying from 10 to 200 mg/kg. and the observed percent decreases of the induced edema are between about 30 and about 65. The acute toxicity of these compounds is ordinarily very low, almost always being higher than 1000 mg/kg. Moreover the compounds of this invention are much less ulcerogenic than other known and wisely used anti-inflammatories, such as, for example, phenylbutazone.
Structure (SMILES),LD50 [1] [mg/kg],Percent inhibition of carrageenin induced edema ([2]; dose 50 mg/kg p.o.) [%],Percent inhibition of carrageenin induced edema ([2]; dose 100 mg/kg p.o.) [%],Percent inhibition of carrageenin induced edema ([2]; dose 200 mg/kg p.o.) [%]
"Cc1nc(-c2ccccc2)oc1C(N)=O [Example 1, 5-Carbamoyl-4-methyl-2-phenyloxazole]",> 1000,30,43,64
"Cc1oc(-c2ccccc2)nc1C(N)=O [Example 2, 4-Carbamoyl-5-methyl-2-phenyloxazole]",> 1000,29,42,53
